≈ marks a conversion by molar mass, not a printed value.

These results are taken from US20260198495A1, “BINARY INSECTICIDE COMPOSITION AND USE THEREOF” (SHENYANG SINOCHEM AGROCHEMICALS R & D CO., LTD., priority 2022, published 2026).

What all share (assay type): in vivo
Test [1] concerns 2nd-instar larvae of Plutella xylostella. Description: whole plant or invertebrate. The note with it: Plutella xylostella; single pesticide, 0.5 mg/L; 72 hours; read-out: Measured mortality rate. As to the method:
Test target: 2nd-instar larvae of Plutella xylostella.
(§1) Preparation of the pesticide solution: according to different test requirements, the test samples were accurately weighed respectively with an electronic analytical balance. The technical pesticides were dissolved in acetone, and then diluted with 0.1% Tween 80 water into a series of pesticide solutions with a certain concentration gradient according to the experimental design dosage.
Experimental method: first, cabbage leaves were selected and dipped in the prepared pesticide solution for 10 s in the order from low dosage to high dosage according to the experimental design. After natural air-drying in the shade, they were placed in a 9-cm-diameter Petri dish with filter paper, and uniform and healthy test insects were introduced, with 10 insects for each treatment and 3 replicates for each treatment. In addition, a blank control (CK) was set up.
The treated test materials were placed in an observation room, and the temperature, humidity and illumination of the observation room could be adjusted as needed. The number of dead and alive insects was investigated 72 hours later, and the corrected mortality rate was calculated using the Abbott's formula.
The synergism of the mixture was evaluated by the Bliss method. According to the concept of independent joint action he proposed, Bliss believes that the theoretical mortality rate P when insecticides are used in combination can be calculated by the following formula: […]
Pm is the measured mortality rate (%) of the target when the first active ingredient is at a concentration of m; and Pn is the measured mortality rate (%) of the target when the second active ingredient is used at a concentration of n.
If the actual mortality rate of the target after the two active ingredients are mixed at a certain concentration is greater than theoretical mortality rate P, it is determined that the two active ingredients have a synergistic effect when used in combination at the set concentration, and otherwise, they have an antagonistic effect.

For test [2], the system named is 2nd-instar larvae of Mythimna separata. The test is described as follows: Joint toxicity of I-72 + hexaflumuron, Example 56, Table 56. The following applies: foliar, A = compound I-72, B = hexaflumuron, corn leaf dipping, 72 hours, read-out: LC50. Here is the method: Test target: 2nd-instar larvae of Mythimna separata.
as §1
Experimental method: first, corn leaves were selected and dipped in the prepared pesticide solution for 10 s in the order from low dosage to high dosage according to the experimental design. After natural air-drying in the shade, they were placed in a 9-cm-diameter Petri dish with filter paper, and uniform and healthy test insects were introduced, with 10 insects for each treatment and 3 replicates for each treatment. In addition, a blank control was set up.
The treated test materials were placed in an observation room, and the temperature, humidity and illumination of the observation room could be adjusted as needed. The number of dead and live insects was investigated 72 hours later. […] Then, the co-toxicity coefficient of each ratio was calculated using the Sun Y-P method to evaluate the mixing effect (the same as in Example 1).

In test [3] the test system is adult Phyllotreta striolata (Walker). Description: Joint toxicity of I-72 + rotenone, insect dipping, Example 35, Table 35. The note with it: A = compound I-72, B = rotenone, insect dipping 10 s, read-out: LC50. The text has this: Test target: adult Phyllotreta striolata (Walker), a strain reared indoors.
Experimental method: the dipping method was adopted. Adult flea beetles of uniform size were put into an insect-dipping cage and dipped for 10 s in the order from low dosage to high dosage according to the experimental design, with 30 beetles for each treatment. The beetles were placed in a 9-cm-diameter Petri dish with filter paper, with 3 replicates for each treatment. In addition, a blank control was set up. The treated test materials were placed in an observation room, and the temperature, humidity and illumination of the observation room could be adjusted as needed.
The test conditions, the preparation of the pesticide solution and the evaluation method were the same as those in Example 1.

For test [4], the system named is Myzus persicae (Sulzer) nymphs. The test is described as follows: Joint toxicity of I-72 + cyantraniliprole, Example 59, Table 59. The note with it: A = compound I-72, B = cyantraniliprole, cabbage leaf spraying, 48 hours, read-out: LC50. Here is the method: Test target: Myzus persicae (Sulzer) nymphs, a sensitive strain reared indoors.
as §1
Experimental method: first, cabbage leaves with uniform and consistent Myzus persicae (Sulzer) were selected, with about 30-40 insects on each leaf. Then, they were evenly sprayed with the pesticide solution in the order from low dosage to high dosage according to the experimental design, with 1.5 mL of the solution for each leaf and 3 replicates for each treatment. In addition, a blank control was set up.
(§2) The treated test materials were placed in an observation room, and the temperature, humidity and illumination of the observation room could be adjusted as needed. The number of dead and live insects was investigated 48 hours later. […] Then, the co-toxicity coefficient of each ratio was calculated using the Sun Y-P method to evaluate the mixing effect (the same as in Example 1).

Test [5] relates to Frankliniella occidentalis nymphs. Description: whole plant or invertebrate. The following applies: foliar, A = compound I-72, B = dinotefuran, kidney bean leaf dipping, 48 hours, read-out: LC50. As to the method: Test target: Frankliniella occidentalis nymphs.
as §1
Experimental method: first, kidney bean leaves were selected and dipped in the prepared pesticide solution for 10 s in the order from low dosage to high dosage according to the experimental design. After natural air-drying in the shade, they were placed in a 9-cm-diameter Petri dish with filter paper, and uniform and healthy test insects were introduced, with 20-30 insects for each treatment and 3 replicates for each treatment. In addition, a blank control was set up.
as §2

In the case of `CN(C(=O)c1ccc2c(c1)OC(F)(F)O2)c1cccc(C(=O)Nc2c(Br)cc(C(F)(C(F)(F)F)C(F)(F)F)cc2OC(F)F)c1F` [Compound I-72], the mortality at 0.5 µg/mL in test [1] came to 80%. Further, the LC50 in test [2] is 0.0301 µg/mL; in test [3], 1.81 µg/mL; in test [4], 8.14 µg/mL; in test [5] it was 2.41 µg/mL (≈ 3.25 µM).

As usually defined, the mortality is the percentage killed. One may read the LC50 as the concentration lethal to half of the exposed cells or organisms.
